Experimental data published in patent US12617773B2, “Azetidin-3-ylmethanol derivatives as CCR6 receptor modulators” (Idorsia Pharmaceuticals Ltd, priority 2020, dated 2026).

These molecules were tested against T1, human CCR6 (Homo sapiens, UniProt P51684) (assay: FLIPR assay (inhibition of CCL20-induced calcium signal)). Details: HEK-293 cells expressing human CCR6; mean values where determined several times; read-out: FLIPR IC50.
T1 construct: expressed in transfected cells; host or cells: HEK-293
T1 sequence (P51684 1-374): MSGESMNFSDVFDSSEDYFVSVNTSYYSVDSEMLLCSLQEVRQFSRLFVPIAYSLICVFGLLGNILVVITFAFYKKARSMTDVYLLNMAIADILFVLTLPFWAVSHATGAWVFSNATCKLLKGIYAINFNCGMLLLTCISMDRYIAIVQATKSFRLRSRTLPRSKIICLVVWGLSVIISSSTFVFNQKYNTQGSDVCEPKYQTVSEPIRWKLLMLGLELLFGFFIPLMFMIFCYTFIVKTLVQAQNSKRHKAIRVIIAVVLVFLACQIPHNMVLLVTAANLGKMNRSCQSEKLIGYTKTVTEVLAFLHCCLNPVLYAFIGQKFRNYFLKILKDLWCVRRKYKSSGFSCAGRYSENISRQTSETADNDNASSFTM
Assay type: cell-based
Protocol: FLIPR assay: The bioactivity of compounds is tested in a fluorometric imaging plate reader (FLIPR: Molecular Devices) using engineered HEK-293 cells expressing the human CCR6 (GenBank: AY242126). Frozen cells are plated on Poly-L-Lysine precoated 384-well plates 2 days prior to bioassay in DMEM medium supplemented with 10% FCS and 1% Penicillin-Streptomycin. […] This buffer, but lacking the dye, is also used for washing and compound dilution steps (assay buffer). Cells are washed free of excess dye with a wash-station (Biotek), leaving 40 microliter of assay buffer at the end. Cells were incubated for 15 minutes at room temperature in the dark, before adding compounds. Stock solutions of test compounds are made up at a concentration of 10 mM in DMSO, and serially diluted first in DMSO and then transferred in assay buffer to concentrations required for inhibition dose response curves. After a 45-minute incubation period in assay buffer at room temperature, 10 microliters of each compound dilution are transferred from a compound plate to the plate containing the recombinant cells in the FLIPR instrument according to the manufacturer's instructions. After cells and compounds were preincubated for 30 minutes at room temperature in the dark, 10 microliter agonist CCL20 (Peprotech) at a final concentration of 10 nM is added, again using the FLIPR instrument. Changes in fluorescence are monitored before and after addition of the test compounds and agonist. Emission peak values above base level after CCL20 addition are exported after base line subtraction.
The calculated IC50 values may fluctuate depending on the daily assay performance. Fluctuations of this kind are known to those skilled in the art.

Row | SMILES | IC50
1 | CC(C)c1ccc([C@](O)(c2cncc(N3CC4OCCC4C3=O)c2)C2(C)CN(C)C2)cc1 (mixture of isomers) [Example 210] | 326 nM
2 | CC(=O)N1CC[C@H](c2nc(-c3cncc([C@@](O)(c4ccc(C(C)C)cc4)C4(C)CN(C)C4)c3)no2)[C@H](C)C1 (mixture of isomers) [Example 478, 1-[cis-4-(3-{5-[(R)-(1,3-Dimethyl-azetidin-3-yl)-hydroxy-(4-isopropyl-phenyl)-methyl]-pyridin-3-yl}-[1,2,4]oxadiazol-5-yl)-3-methyl-piperidin-1-yl]-ethanone] | 88.9 nM
3 | CC(C)c1ccc([C@](O)(c2cncc([C@@H]3CCC(C)(O)C3)c2)C2(C)CN(C)C2)cc1 (single isomer, unassigned) [Example 297] | 93.5 nM
4 | CC(C)c1ccc([C@](O)(c2cncc(-c3noc(C4(C)CC(=O)N(C)C4)n3)c2)C2(C)CN(C)C2)cc1 (single isomer, unassigned) [Example 365] | 147 nM
5 | Cc1cc(C(C)(O)C#Cc2cncc([C@@](O)(c3ccc(C(C)C)cc3)C3(C)CN(C)C3)c2)nn1C (single isomer, unassigned) [Example 401] | 117 nM
6 | Cc1cc(C(C)(O)C#Cc2cncc([C@@](O)(c3ccc(C(C)C)cc3)C3(C)CN(C)C3)c2)nn1C (single isomer, unassigned) [Example 402] | 88.3 nM
7 | CC(C)c1ccc([C@](O)(c2cncc(C#CC(C)(O)c3ccn(C)n3)c2)C2(C)CN(C)C2)cc1 (single isomer, unassigned) [Example 405] | 102 nM
8 | CCN1CC(c2nc(-c3cncc([C@@](O)(c4ccc(C(C)C)cc4)C4(C)CN(C)C4)c3)no2)CC1=O (single isomer, unassigned) [Example 511] | 133 nM
9 | CC(C)c1ccc([C@](O)(c2cncc(-c3noc(C4CC(=O)N(C(C)C)C4)n3)c2)C2(C)CN(C)C2)cc1 (single isomer, unassigned) [Example 513] | 101 nM
10 | COc1nccc(C(C)(O)C#Cc2cncc([C@@](O)(c3ccc(C(C)C)cc3)C3(C)CN(C)C3)c2)n1 (single isomer, unassigned) [Example 624] | 81.8 nM
11 | Cc1cc(C(C)(O)C#Cc2cncc([C@@](O)(c3ccc(C(C)C)cc3)C3(C)CN(C)C3)c2)nc(C)n1 (single isomer, unassigned) [Example 625] | 107 nM
12 | COc1cc(C(C)(O)C#Cc2cncc([C@@](O)(c3ccc(C(C)C)cc3)C3(C)CN(C)C3)c2)nc(OC)n1 (single isomer, unassigned) [Example 628] | 20.2 nM
13 | COc1cc(C(C)(O)C#Cc2cncc([C@@](O)(c3ccc(C(C)C)cc3)C3(C)CN(C)C3)c2)nc(C)n1 (single isomer, unassigned) [Example 631] | 79.5 nM
14 | CC(C)c1ccc([C@](O)(c2cncc(C#CC(C)(O)c3ccnc(C(F)(F)F)n3)c2)C2(C)CN(C)C2)cc1 (single isomer, unassigned) [Example 652] | 10.9 nM
15 | CN1CC(F)(C(O)(c2ccc(OC(F)(F)F)cc2)c2cncc(N3CCCC3)c2)C1 (centres unmarked) [Example 1, (3-Fluoro-1-methyl-azetidin-3-yl)-(5-pyrrolidin-1-yl-pyridin-3-yl)-(4-trifluoromethoxy-phenyl)-methanol] | 114 nM
16 | CN1CC(C#N)(C(O)(c2ccc(OC(F)(F)F)cc2)c2cncc(N3CCCC3)c2)C1 (centres unmarked) [Example 2, 3-[Hydroxy-(5-pyrrolidin-1-yl-pyridin-3-yl)-(4-trifluoromethoxy-phenyl)-methyl]-1-methyl-azetidine-3-carbonitrile] | 147 nM
17 | CCN1CC(C)([C@](O)(c2ccc(OC(F)(F)F)cc2)c2cncc(N3CCCC3)c2)C1 [Example 3, (R)-(1-Ethyl-3-methyl-azetidin-3-yl)-(5-pyrrolidin-1-yl-pyridin-3-yl)-(4-trifluoromethoxy-phenyl)-methanol] | 28 nM
18 | CC(C)N1CC(C)([C@](O)(c2ccc(OC(F)(F)F)cc2)c2cncc(N3CCCC3)c2)C1 [Example 5] | 33.3 nM
19 | CC1([C@](O)(c2ccc(OC(F)(F)F)cc2)c2cncc(N3CCCC3)c2)CN(CC2CC2)C1 [Example 6] | 47.2 nM
20 | CC1([C@](O)(c2ccc(OC(F)(F)F)cc2)c2cncc(N3CCCC3)c2)CN(C2CCC2)C1 [Example 7] | 54.3 nM
21 | CC(C)CN1CC(C)([C@](O)(c2ccc(OC(F)(F)F)cc2)c2cncc(N3CCCC3)c2)C1 [Example 8] | 110 nM

More lines, in order of falling IC50, values ahead:

Row | IC50 | SMILES
22 | 208 nM | CC(C)c1ccc([C@](O)(c2cncc(-c3noc(C4CC(=O)N(C)C4)n3)c2)C2(C)CN(C)C2)cc1 (single isomer, unassigned) [Example 509]
23 | 184 nM | CCN1CC(c2nc(-c3cncc([C@@](O)(c4ccc(C(C)C)cc4)C4(C)CN(C)C4)c3)no2)CC1=O (single isomer, unassigned) [Example 510]
24 | 181 nM | CC(C)c1ccc([C@](O)(c2cncc(-c3noc(C4CCNC(=O)C4)n3)c2)C2(C)CN(C)C2)cc1 (single isomer, unassigned) [Example 515]
25 | 165 nM | CC(C)c1ccc([C@](O)(c2cncc(-c3noc(C4(C)CC(=O)N(C)C4)n3)c2)C2(C)CN(C)C2)cc1 (single isomer, unassigned) [Example 366]
26 | 164 nM | CC(C)c1ccc([C@](O)(c2cncc(C#CC(C)(O)c3ccn(C)n3)c2)C2(C)CN(C)C2)cc1 (single isomer, unassigned) [Example 404]
27 | 130 nM | CC1([C@](O)(c2ccc(OC(F)(F)F)cc2)c2cncc(N3CCCC3)c2)CN(CC(F)F)C1 [Example 11, (R)-[1-(2,2-Difluoro-ethyl)-3-methyl-azetidin-3-yl]-(5-pyrrolidin-1-yl-pyridin-3-yl)-(4-trifluoromethoxy-phenyl)-methanol]
28 | 111 nM | Cc1cc(C(C)(O)C#Cc2cncc([C@@](O)(c3ccc(C(C)C)cc3)C3(C)CN(C)C3)c2)nc(C)n1 (single isomer, unassigned) [Example 626]
29 | 105 nM | COc1cc(C(C)(O)C#Cc2cncc([C@@](O)(c3ccc(C(C)C)cc3)C3(C)CN(C)C3)c2)ncn1 (single isomer, unassigned) [Example 622]
30 | 104 nM | CC(C)c1ccc([C@](O)(c2cncc(-c3noc(C4CCNC(=O)C4)n3)c2)C2(C)CN(C)C2)cc1 (single isomer, unassigned) [Example 516]
31 | 74.7 nM | CC1([C@](O)(c2ccc(OC(F)(F)F)cc2)c2cncc(N3CCCC3)c2)CN(C2CC2)C1 [Example 9, (R)-(1-Cyclopropyl-3-methyl-azetidin-3-yl)-(5-pyrrolidin-1-yl-pyridin-3-yl)-(4-trifluoromethoxy-phenyl)-methanol]
32 | 66.9 nM | CC(C)c1ccc([C@](O)(c2cncc(N3C[C@H](C(C)(C)C)OC3=O)c2)C2(C)CN(C)C2)cc1 (single isomer, unassigned) [Example 167]
33 | 64.1 nM | CC1([C@](O)(c2ccc(OC(F)(F)F)cc2)c2cncc(N3CCCC3)c2)CN(CCF)C1 [Example 10, (R)-[1-(2-Fluoro-ethyl)-3-methyl-azetidin-3-yl]-(5-pyrrolidin-1-yl-pyridin-3-yl)-(4-trifluoromethoxy-phenyl)-methanol]
34 | 61.1 nM | CC(C)c1ccc([C@](O)(c2cncc(-c3noc(C4CC(=O)N(C(C)C)C4)n3)c2)C2(C)CN(C)C2)cc1 (single isomer, unassigned) [Example 512]
35 | 61.1 nM | COc1cc(C(C)(O)C#Cc2cncc([C@@](O)(c3ccc(C(C)C)cc3)C3(C)CN(C)C3)c2)nc(C)n1 (single isomer, unassigned) [Example 630]
36 | 60.9 nM | COc1nc(C)cc(C(C)(O)C#Cc2cncc([C@@](O)(c3ccc(C(C)C)cc3)C3(C)CN(C)C3)c2)n1 (single isomer, unassigned) [Example 629]
37 | 55.3 nM | COc1cc(C(C)(O)C#Cc2cncc([C@@](O)(c3ccc(C(C)C)cc3)C3(C)CN(C)C3)c2)ncn1 (single isomer, unassigned) [Example 620]
38 | 44.9 nM | COc1nccc(C(C)(O)C#Cc2cncc([C@@](O)(c3ccc(C(C)C)cc3)C3(C)CN(C)C3)c2)n1 (single isomer, unassigned) [Example 623]
39 | 36.2 nM | CCCN1CC(C)([C@](O)(c2ccc(OC(F)(F)F)cc2)c2cncc(N3CCCC3)c2)C1 [Example 4]
40 | 11.5 nM | COc1cc(C(C)(O)C#Cc2cncc([C@@](O)(c3ccc(C(C)C)cc3)C3(C)CN(C)C3)c2)nc(OC)n1 (single isomer, unassigned) [Example 627]
41 | 10.1 nM | CC(C)c1ccc([C@](O)(c2cncc(C#CC(C)(O)c3ccnc(C(F)(F)F)n3)c2)C2(C)CN(C)C2)cc1 (single isomer, unassigned) [Example 653]
